Measured values: patent US20150073123A1, “SYNTHETIC PEPTIDES WITH A NON-NARCOTIC TYPE OF ANALGESIC EFFECT” (priority 2012, published 2015)
Where no end group is shown, it is not given here.

What was measured:
rats [1] = experiment: Rat formalin test, intranasal administration of peptide 30 min before formalin; format: in vivo; conditions: Table 7; for Duration of the 1st peak of pain reaction: in s
Method: (§1) Analgesic activity of newly synthesized peptides was examined as follows. Rats weighing 180-200 g were suboccipitally injected with the study peptide under ether anesthesia using a microdispenser in 10 μl of normal saline. Control animals were similarly injected with the equal amount of normal saline. After 20 minutes, 50 mcl of formalin solution at a dilution of 1:50 was injected into the dorsal surface of the right hind paw. The time of peptide injection and formalin dilution has been developed earlier. Each rat was used only once. The most clear behavioral indicators of pain reaction were expressed in paw tucking, licking, nibbling and jolting. Moreover, the first acute reaction to pain lasting for 6-7 min in control animals was followed by the dormant period: a rat lowered its paw, grooming behavior and nibbling was stopped. Then the reaction was repeated with expression not less than the previous one—it was the second phase of pain reaction.
The moment of paw tucking (beginning of the 1st phase of pain reaction), duration of this reaction, duration of dormancy and time of onset of the second phase of reaction—repeated paw tucking or its absence—were visually recorded in order to obtain quantitative data. Peptide was injected 20 min prior to formalin injection in case of suboccipital method of peptide injection and 30 min prior to formalin injection in case of intranasal method. […]

rats [2] = experiment: Rat formalin test, suboccipital injection of peptide 20 min before formalin; format: in vivo; conditions: for Duration of the first peak of pain reaction / Time of pain reaction onset: Table 2, suboccipital injection
Method: Analgesic activity of newly synthesized peptides was examined in the “formalin test” which allows discovering non-narcotic type of anesthesia (Wheeler-Aceto H., Porrea F., A. Cowan. The rat paw formalin test: comparison of noxious agents. Pain, 40 (1990), 229-238).
as §1
The moment of paw tucking (beginning of the 1st phase of pain reaction), duration of this reaction, duration of dormancy and time of onset of the second phase of reaction—repeated paw tucking or its absence—were visually recorded in order to obtain quantitative data. Peptide was injected 20 min prior to formalin injection in case of suboccipital method of peptide injection and 30 min prior to formalin injection in case of intranasal method.

[3] = earlier work; cited from earlier work
rats [4] = conditions: earlier work of Kotin, Vlasov et al. 1988; cited from earlier work
[5] = intranasal in citrate phosphate buffer, 30 min prior to formalin 2%, dose 10 μg

With “D-Thr-D-Glu-D-Leu-D-15 Lys-L-His-D-Leu-NH2” the “Beginning of pain reaction” value (rats [1]; [5]) was 8 ± 3 s, the “Beginning of pain reaction” value (rats [1]; intranasal, dose 0.1 μg) was 48 ± 18 s and the “Beginning of the 2nd peak” value (rats [1]; intranasal, dose 0.1 μg) was 21.0 ± 5.3 min. The “Duration of the 1st peak of pain reaction” value (rats [1]; intranasal, dose 0.1 μg) was 300 ± 10, the “Beginning of pain reaction” value (rats [1]; intranasal, dose 1 μg) was 10 ± 2 s and the “Beginning of the 2nd peak” value (rats [1]; intranasal, dose 1 μg) was 12.5 ± 1.6, the min. For the same substance, the “Duration of the 1st peak of pain reaction” value (rats [1]; intranasal, dose 1 μg) was 342 ± 26, the “Number of rats that do not have the 2nd peak” value (rats [1]; intranasal, dose 1 μg, remark in the 2nd peak column) was “first one has none” and the “Beginning of the 2nd peak” value (rats [1]; intranasal, dose 10 μg) was 15.0 ± 1.6 min. The “Duration of the 1st peak of pain reaction” value (rats [1]; intranasal, dose 10 μg) was 314 ± 32.
With “D-Thr-D-Glu-D-Leu-D-Lys-D-His-D-Leu-NH2 [Complete retro-inversion CT16-21]” the “Beginning of pain reaction” value (rats [1]; [5]) was 20 ± 9 s, the “Beginning of pain reaction” value (rats [1]; intranasal, dose 0.1 μg) was 126 s and the “Beginning of the 2nd peak” value (rats [1]; intranasal, dose 0.1 μg) was 16.2 ± 2.6 min. For the same substance, the “Duration of the 1st peak of pain reaction” value (rats [1]; intranasal, dose 0.1 μg) was 249 ± 20, the “Beginning of pain reaction” value (rats [1]; intranasal, dose 1 μg) was 12 ± 6 s and the “Beginning of the 2nd peak” value (rats [1]; intranasal, dose 1 μg) was 17.4 ± 2.9 min. For the same substance, the “Duration of the 1st peak of pain reaction” value (rats [1]; intranasal, dose 1 μg) was 300 ± 46, the “Beginning of the 2nd peak” value (rats [1]; intranasal, dose 10 μg) was 14.4 ± 1.0 min and the “Duration of the 1st peak of pain reaction” value (rats [1]; intranasal, dose 10 μg) was 333 ± 9.
With CGRP the “Beginning of pain reaction” value (rats [2]; Table 4, dose 1 μg) was 5 (2) sec, the “Beginning of the 2nd peak” value (rats [2]; Table 4, dose 1 μg) was 17 (2) min and the “Duration of the 1st peak of pain reaction” value (rats [2]; Table 4, dose 1 μg) was 402 (36). For the same substance, the “Analgesic activity in the formalin test (in words)” value (rats [2]; rats) was “does not have analgesic activity”.
In the case of LHKLQT [CT16-21], the “Impact on calcium metabolism” value [3] is listed as “does not have immunologic activity, impact on calcium metabolism”, the “Duration of the first peak of pain reaction” value (rats [2]; rats, dose 0.001 μg/rat) is listed as 394 (34) sec and the “Time of pain reaction onset” value (rats [2]; rats, dose 0.001 μg/rat) is listed as 17 (6) sec. For the same substance, the “Duration of the first peak of pain reaction” value (rats [2]; rats, dose 0.01 μg/rat) was 328 (21) sec, the “Time of pain reaction onset” value (rats [2]; rats, dose 0.01 μg/rat) was 19 (8) sec and the “Duration of the first peak of pain reaction” value (rats [2]; rats, dose 0.1 μg/rat) was 263 (20) a < 0.001 sec. For the same substance, the “Time of pain reaction onset” value (rats [2]; rats, dose 0.1 μg/rat) was 39 (8) a < 0.001 sec, the “Beginning of the 2nd peak” value (rats [2]; Table 3, dose 1 μg per rat) was 21 ± 2 min and the “Duration of the 1st peak” value (rats [2]; Table 3, dose 1 μg per rat) was 284 ± 20 s. The “Number of animals which do not have the 2nd peak of reaction” value (rats [2]; Table 3, dose 1 μg per rat) was 4, the “Beginning of pain reaction” value (rats [2]; Table 3, dose 1 μg per rat, in s) was 30 ± 6 and the “Analgesic activity in the rat formalin test (in words)” value (rats [4]) was “high analgesic activity”.
